The values below come from ChEMBL document CHEMBL4043145, “Pyridine-pyrimidine amides that prevent HGF-induced epithelial scattering by two distinct mechanisms” (Bioorg Med Chem Lett, 2017).

By IC50 is commonly meant the concentration at which inhibition is half-maximal. For orientation: inhibition means the drop in the measured response relative to a control, in per cent. As usually defined, the EC50 is the midpoint of the concentration-response curve. The Kd is a measure of binding affinity in units of concentration.

The source made the active and inactive calls. The calls are words filed in the database; no cut-off is given here.

Assay [1] is described as follows: (§1) Inhibition of bovine brain tubulin polymerization. More on the design: species or system Bos taurus.
For assay [2], the species on record is Bos taurus. The assay is described as §1.
The test system of assay [3] is A2780. Kind of assay: Cell cycle arrest in human A2780 cells assessed as accumulation at S phase at 300 nM (reference value: 21.16 to 22.81%). In kind it is functional.
Assay [4] has as its system A2780. Kind of assay: Cell cycle arrest in human A2780 cells assessed as accumulation at G1 phase at 300 nM (reference value: 55.26 to 55.66%). In kind it is functional.
Assay [5] has as its system A2780. Kind of assay: Cell cycle arrest in human A2780 cells assessed as accumulation at G2/M phase at 300 nM (reference value: 19.42 to 20.43%). It counts as functional.
Assay [6] concerns MCF7. Kind of assay: Cell cycle arrest in human MCF7 cells assessed as accumulation at G1 phase at 300 nM (reference value: 47.47 to 52.3%). In kind it is functional.
Assay [7] deals with MCF7. Kind of assay: Cell cycle arrest in human MCF7 cells assessed as accumulation at S phase at 300 nM (reference value: 25.36 to 26.82%). In kind it is functional.
The test system of assay [8] is MCF7. Kind of assay: Cell cycle arrest in human MCF7 cells assessed as accumulation at G2/M phase at 300 nM (reference value: 20.06 to 22.33%). It counts as functional.
Assay [9] concerns PC-3. The assay is described as follows: Cell cycle arrest in human p53-null PC3 cells assessed as accumulation at G1 phase at 300 nM (reference value: 50.77 to 51.16%). It counts as functional.
Assay [10] deals with PC-3. Kind of assay: Cell cycle arrest in human p53-null PC3 cells assessed as accumulation at S phase at 300 nM (reference value: 29.08 to 29.33%). It counts as functional.
Assay [11] concerns PC-3. The assay is described as follows: Cell cycle arrest in human p53-null PC3 cells assessed as accumulation at G2/M phase at 300 nM (reference value: 18.37 to 18.96%). In kind it is functional.
The test system of assay [12] is MFE-280. Kind of assay: Cell cycle arrest in human MFE280 cells assessed as accumulation at G1 phase at 300 nM (reference value: 64.99 to 67.86%). It counts as functional.
Assay [13] deals with MFE-280. Kind of assay: Cell cycle arrest in human MFE280 cells assessed as accumulation at S phase at 300 nM (reference value: 14.14 to 15.66%). In kind it is functional.
For assay [14], the system named is MFE-280. Kind of assay: Cell cycle arrest in human MFE280 cells assessed as accumulation at G2/M phase at 300 nM (reference value: 16.43 to 17.9%). It counts as functional.
The subject of assay [15] is MFE-296. The assay is described as follows: Cell cycle arrest in human MFE296 cells assessed as accumulation at G1 phase at 300 nM (reference value: 61.05 to 64.87%). It counts as functional.
Assay [16] deals with MFE-296. Kind of assay: Cell cycle arrest in human MFE296 cells assessed as accumulation at S phase at 300 nM (reference value: 16.96 to 19.19%). In kind it is functional.
The subject of assay [17] is MFE-296. Kind of assay: Cell cycle arrest in human MFE296 cells assessed as accumulation at G2/M phase at 300 nM (reference value: 15.71 to 17.04%). In kind it is functional.
In assay [18] the test system is T47D. Kind of assay: Cell cycle arrest in human T47D cells assessed as accumulation at G1 phase at 300 nM (reference value: 45.5 to 57.8%). In kind it is functional.
Assay [19] concerns T47D. Kind of assay: Cell cycle arrest in human T47D cells assessed as accumulation at S phase at 300 nM (reference value: 19.89 to 24.55%). It counts as functional.
Assay [20] has as its system T47D. The assay is described as follows: Cell cycle arrest in human T47D cells assessed as accumulation at G2/M phase at 300 nM (reference value: 20.58 to 28.8%). In kind it is functional.
The subject of assay [21] is MDCK-II. The assay is described as follows: Antimigratory activity against MDCK2 cells assessed as inhibition of HGF-induced cell scattering at 1 uM pretreated for 18 hrs followed by HGF addition measured after 20 to 24 hrs by crystal violet staining-based assay relative to control. It counts as functional. To be noted: Canis lupus familiaris.
In assay [22] the test system is MCF7. Kind of assay: Antiproliferative activity against human MCF7 cells at 10 uM relative to control. In kind it is functional, cell-based.
In assay [23] the test system is MDA-MB-468. The assay is described as follows: Antiproliferative activity against human MDA-MB-468 cells at 10 uM relative to control. It counts as functional.
Assay [24] deals with MDCK-II. The assay is described as follows: Antimigratory activity against MDCK2 cells assessed as inhibition of HGF-induced cell scattering pretreated for 18 hrs followed by HGF addition measured after 20 to 24 hrs by crystal violet staining-based assay. It counts as functional. The note with it: Canis lupus familiaris.
Assay [25] in a line: Antimigratory activity against human SW.71 cells at 10 uM after 18 hrs by crystal violet staining-based assay relative to control. In kind it is functional. To be noted: SW.71, 18 h.
The subject of assay [26] is A2780. The assay is described as follows: Antiproliferative activity against human A2780 cells. In kind it is functional, cell-based.
For assay [27], the species on record is Bos taurus. The assay is described as follows: Inhibition of colchicine binding to bovine brain tubulin up to 25 uM by fluorescence based assay relative to control.
Assay [28] can be described thus: Binding affinity to tubulin (unknown origin) by isothermal titration calorimetric analysis. Further details: species or system Homo sapiens. In general terms: Isothermal titration calorimetry measures the heat released or taken up as one component is titrated into another.
Assay [29] is filed under the species Homo sapiens. The assay is described as follows: Binding affinity to tubulin (unknown origin) by CD spectroscopic method.

As for `Cc1ccc(C(=O)Nc2ccc(-c3cccc(C4CCO4)c3)cn2)cn1` (configuration not stated), in assay [1], the midpoint of inhibition, the IC50, lay at 0.295 µM. Further, in assay [2], the inhibition entry is “Dose-dependent effect”.

For `O=C(Nc1ccc(-c2cccc(C3CC3)c2)cn1)c1cncnc1`, the IC50 in assay [1] came out at 1.03 µM. Also, the inhibition entry in assay [2] was “Dose-dependent effect”.

With `CC(=O)O[C@H]1C(=O)[C@@]2(C)[C@H]([C@H](OC(=O)c3ccccc3)[C@]3(O)C[C@H](OC(=O)[C@H](O)[C@@H](NC(=O)c4ccccc4)c4ccccc4)C(C)=C1C3(C)C)[C@]1(OC(C)=O)CO[C@@H]1C[C@@H]2O` [PACLITAXEL], the Activity was 10.42% in assay [3]; 13.37% in assay [4]; 70.7% in assay [5]; 3.43% in assay [6]; 7.07% in assay [7]; 86.54% in [8]. Besides, the Activity amounted to 8.25% in [9]; 20.78% in [10]; 70.82% in assay [11]; 34.74% in assay [12]; 22.1% in assay [13]; 39.59% in [14]. In addition, the Activity in assay [15] was found to be 26.72%; in [16] it was 19.73%; in [17] it was 51.88%; in assay [18], 30.62%; in assay [19], 27.89%; in assay [20], 41.49%.

For the compound `Cc1nc(NC(=O)c2cccc([N+](=O)[O-])c2)ccc1I`, the inhibition at 1 µM in assay [21] was in the range of 71 to 95.9%. Moreover, the inhibition at 10 µM in assay [22] turned out to be 84%; in assay [23], 73%. In addition, in assay [24], the EC50 was 3 µM.

As for `Cc1ncc(C(=O)Nc2ccc(-c3cccc(NC4CC4)c3)cn2)cn1`, the IC50 in assay [1] came out at 0.319 µM. Besides, the inhibition result in assay [2] was “Dose-dependent effect”.

In assay [1], `CC[C@]1(O)C[C@H]2CN(CCc3c([nH]c4ccccc34)[C@@](C(=O)OC)(c3cc4c(cc3OC)N(C=O)[C@H]3[C@@](O)(C(=O)OC)[C@H](OC(C)=O)[C@]5(CC)C=CCN6CC[C@]43[C@@H]65)C2)C1` [VINCRISTINE] yielded an IC50 of 0.4 to 0.684 µM.

In the case of `Cc1nc(NC(=O)c2cncnc2)ccc1I`, the inhibition at 1 µM in assay [21] is 249%. Besides, in assay [25], the inhibition at 10 µM is 80%.

`Cc1ncc(C(=O)Nc2ccc(-c3cccc(OC4CC4)c3)cn2)cn1` returned an IC50 in assay [1] of 0.817 µM. For the same compound, the inhibition entry in assay [2] was “Dose-dependent effect”.

With `O=C(Nc1ccc(-c2ccccc2)cn1)c1ccncn1`, the EC50 in [22] and in [26] was over 10 µM throughout.

For `O=C(Nc1ccc(-c2ccccc2)cn1)c1cncnc1-c1ccccc1`, the EC50 in [22] and in assay [26] was over 10 µM throughout.

As for `c1ccc(-c2ccc(NCc3cncnc3)nc2)cc1`, the concentration giving a half-maximal response (EC50) in assay [22] and in assay [26] was over 10 µM in each case.

In the case of `O=C(Nc1ccc(-c2ccc(Cl)cc2)cn1)c1cncnc1`, the EC50 in assay [22] and in assay [26] was over 10 µM each time.

With `CN(C(=O)c1cnccn1)c1ccc(-c2ccccc2)cn1`, the EC50 in assay [22] and in [26] was over 10 µM in each case.

In the case of `O=C(Nc1ccc(-c2ccccc2)cc1)c1cncnc1`, the EC50 in assay [22] and in [26] was over 10 µM in each case.

As for `Cc1ncc(C(=O)Nc2ccc(-c3cccc(S(=O)(=O)C4CC4)c3)cn2)cn1`, the IC50 in [1] was determined as 0.24 µM. The results for the inhibition result in assay [2] and in assay [27] were “Dose-dependent effect” and 70%, respectively. In assay [28], the affinity, expressed as Kd, was 0.19 µM. Besides, the outcome in [29] was Active.

As for `CSc1ncncc1C(=O)Nc1ccc(-c2ccccc2)cn1`, the EC50 in assay [22] and in [26] was over 10 µM throughout.

Consider `O=C(Nc1ncc(-c2ccccc2)cn1)c1cncnc1`, for which the EC50 was determined as 0.272 µM in assay [22] and 0.068 µM in [26].

The compound `Cc1ncc(C(=O)Nc2ccc(-c3cccc(C4CC4)c3)cn2)cn1` returned an IC50 in assay [1] of 0.885 µM. Further, the inhibition entry in assay [2] was “Dose-dependent effect”.

Take `O=S(=O)(Nc1ccc(-c2ccccc2)cn1)c1cccnc1`: the EC50 in [22] and in assay [26] was over 10 µM in each case.

For the compound `O=C(Nc1ccc(-c2ccccn2)cn1)c1cncnc1`, the EC50 in [22] is 0.651 µM; in assay [26] it was 0.612 µM.

For the compound `Cc1ncc(C(=O)Nc2ccc(-c3ccccc3)cn2)cn1`, the EC50 in [22] stood at 0.109 µM; in assay [26], 0.029 µM.
